Measured values reported in patent US8211909B2, “Treatment of antibiotic-resistant bacteria infection” (TaiGen Biotechnology Co., Ltd., priority 2008, dated 2012).
In brackets after ≈: the same amount, converted by molar mass. Like-named read-outs stand apart in the source and are kept apart here. Blank lines part the entries; values can stand above or below the compound they belong to.

Experiments:
[1] = system: methicillin-resistant Streptococcus pneumoniae; test: MIC by broth microdilution, Taiwan clinical isolates (Compound 1′); format: cell-based; settings: for MIC50 / MIC90: Streptococcus pneumoniae
Description: (§1) The Staphylococcus aureus and Streptococcus pneumoniae isolates were obtained by 10 medical centers in all regions of Taiwan. MICs were determined using the broth microdilution method.

[2] = system: methicillin-resistant Staphylococcus aureus; test: as above; format: cell-based; settings: for MIC50 / MIC90: Staphylococcus aureus, MRSA
Description: as §1

[3] = system: Staphylococcus aureus strains (MRSA, hVISA, VISA, VRSA, quinolone-resistant MRSA); test: MIC by agar dilution against Staphylococcal strains (MRSA, hVISA, VISA, VRSA, quinolone-resistant MRSA); format: cell-based; settings: Staphylococcus aureus
Description: Compound 1 was tested for its inhibitory effect against 26 Methicillin-resistant Staphylococcus aureus (MRSA) strains, 2 hetero-Vancomycin intermediate Staphylococcus aureus (hVISA) strains, 24 Vancomycin-intermediate Staphylococcus aureus (VISA) strains, 5 Vancomycin-resistant Staphylococcus aureus (VRSA) strains, and 31 quinolone-resistant Vancomycin-susceptibale MRSA strains with defined mutations in QRDR. These mutations were determined by sequencing analysis of the QRDR (gyrA, gyrB, grlA, and grlB). Efflux testing was performed by the reserpine method (Brenwald, et al., Antimicrob. Agents Chemother. 1998, 42: 2032-2035).

E. faecalis = test: CANWARD 2007 gram-positive cocci, CLSI broth microdilution; format: cell-based; set-up: unit not given beside the values; settings: E. faecalis (81)
Description: (§2) From January-December 2007, 12 hospitals across Canada submitted isolates from patients attending hospital clinics, emergency rooms, medical and surgical wards, and intensive care units. 7881 isolates (CANWARD 2007) were collected including 3473 gram-positive cocci. Susceptibility testing for Compound 1 and Levofloxacin was performed using the Clinical and Laboratory Standards Institute broth microdilution.

H. pylori isolates = test: MIC by agar dilution against 200 H. pylori isolates (Taiwan); format: cell-based, Helicobacter pylori
Description: MICs were determined using the agar dilution methods recommended by the Clinical and Laboratory Standards Institute (CLSI-M100-S18).

[4] = system: Staphylococcus epidermidis (MSSE, MRSE); test: CANWARD 2007 gram-positive cocci, CLSI broth microdilution; format: cell-based; set-up: MIC50 / MIC90: unit not given beside the values
Description: as §2

[5] = system: Methicillin-resistant Staphylococcus aureus (MRSA) isolates; test: MIC by broth microdilution (CLSI) against CAN-ICU MRSA isolates; format: cell-based; settings: Staphylococcus aureus; for MIC50: read-out: MIC50; for MIC90: read-out: MIC90
Text: MRSA isolates (n=193) were obtained as part of the Canadian National Intensive Care Unit (CAN-ICU) Study. 19 medical centers from all regions of Canada with active ICUs participated in the CAN-ICU study included. They were requested to only obtain “clinically significant” specimens from patients with a presumed infectious disease. Surveillance swabs, eye, ear, nose and throat swabs were excluded. Anaerobic organisms and fungal organisms were also excluded.
From September 2005-June 2006 (inclusive), each center collected a maximum of 300 consecutive pathogens isolated from blood, urine, tissue/wound, and respiratory specimens (one pathogen per cultured site per patient) of ICU patients. These isolates were shipped to the reference laboratory (Health Sciences Centre, Winnipeg, Canada) on Amies charcoal swabs, subcultured in appropriate media, and stocked in skim milk at −80° C.
All isolates underwent mecA PCR, as well as molecular characterization (including PVL analysis and fingerprinting), as previously described, to assess whether they were community-associated or healthcare-associated (Christianson et al., J Clin Microbiol. 2007, 45 (6): 1904-11; Mulvey et al., J Clin. Microbiol. 2001, 39(10): 3481-5; Mulvey et al., Emerg Infect Dis. 2005,11(6): 844-50; Oliveira et al., Antimicrob Agents Chemother. 2002, 46(7): 2155-61). The isolates were also subtyped using pulsed-field gel electrophoresis (PFGE) following the Canadian standardized protocol as previously described (Mulvey et al., J Clin Microbiol. 2001, 39(10): 3481-5). Their PFGE fingerprints thus obtained were analyzed with BioNumerics v3.5 (Applied Maths St. Marten-Latem, Belgium) using a position tolerance of 1.0 and an optimization of 1.0. Strain relatedness was determined as previously described (Tenover et al., 1995). The fingerprints of the isolates were compared to the national MRSA fingerprint database and were grouped into one of 10 Canadian epidemic MRSA (CMRSA-1, CMRSA-2, etc) as previously described (Mulvey et al., Emerg Infect Dis. 2005,11(6):844-50).
Compound 1 and other antibiotics were tested for their inhibitory activity against the MRSA isolates using the broth microdilution guidelines as stipulated by the Clinical and Laboratory Standards Institute.

[6] = system: S. aureus (MSSA, CA-MRSA, HA-MRSA, VISA, VRSA); test: CANWARD 2007 / NARSA gram-positive cocci, CLSI broth microdilution; format: cell-based, Staphylococcus aureus; set-up: MIC50 / MIC90: unit not given here
Description: as §2

S. pneumoniae = test: CANWARD 2007 gram-positive cocci, CLSI broth microdilution; format: cell-based, Streptococcus pneumoniae; set-up: MIC50 / MIC90: unit not given here
Description: as §2

[7] = MRSP-Levo (R): Levofloxacin resistant strain
[8] = MRSP-Levo (S): Levofloxacin sensitive strain
[9] = MRSA-CIP (R): MRSA-ciprofloxacin resistant strain
[10] = MRSA-CIP (S): MRSA-ciprofloxacin sensitive strain
[11] = hVISA(2) + VISA (24) + VRSA (5)
[12] = Helicobacter pylori, 200 isolates of H. pylori
[13] = MRSA / USA100, USA 100/800 (HA-MRSA)
[14] = MRSA / USA200, USA 200 (HA-MRSA)
[15] = MRSA / USA300, USA 300 (CA-MRSA)
[16] = MRSA / USA400, USA 400 (CA-MRSA)
[17] = MRSA / USA600, USA 600 (HA-MRSA)

MIC50 [1, 7]: 0.25 µg/mL (≈ 0.673 µM)
MIC90 [1, 7]: 1 µg/mL (≈ 2.69 µM)
MIC50 [1, 8]: 0.03 µg/mL (≈ 0.0808 µM)
MIC90 [1, 8]: 0.06 µg/mL (≈ 0.162 µM)
MIC50 [2, 9]: 1 µg/mL (≈ 2.69 µM)
MIC90 [2, 9]: 1 µg/mL (≈ 2.69 µM)
MIC50 [2, 10]: 0.03 µg/mL (≈ 0.0808 µM)
MIC90 [2, 10]: 0.06 µg/mL (≈ 0.162 µM)
Compound: COc1c(N2C[C@H](C)C[C@H](N)C2)ccc2c(=O)c(C(=O)O)cn(C3CC3)c12 [Compound 1′, (3S,5R)-7-[3-amino-5-methyl-piperidinyl]-1-cyclopropyl-1,4-dihydro-8-methoxy-4-oxo-3-quinolinecarboxylic acid]
inhibition (in words) ([1]; methicillin-resistant Streptococcus pneumoniae): effective
inhibition (in words) ([2]; methicillin-resistant Staphylococcus aureus): effective

Compound: C[C@H]1COc2c(N3CCN(C)CC3)c(F)cc3c(=O)c(C(=O)O)cn1c23 [Levofloxacin]
MIC50/MIC90 (single value printed) ([1]; MRSP-Levo (R)): >128 µg/mL
MIC50/MIC90 (single value printed) ([1]; MRSP-Levo (S)): 16 µg/mL (≈ 44.3 µM)
MIC50 ([3]; MRSA (26)): 0.25 µg/mL (≈ 0.692 µM)
MIC90 ([3]; MRSA (26)): 0.5 µg/mL (≈ 1.38 µM)
MIC50 ([3]; Quinolone-resistant MRSA (31)): 16 µg/mL (≈ 44.3 µM)
MIC90 ([3]; Quinolone-resistant MRSA (31)): 32 µg/mL (≈ 88.6 µM)
MIC50 [3, 11]: 16 µg/mL
MIC90 [3, 11]: 32 µg/mL
MIC ([3]; read-out: MIC Range, MRSA (26)): 0.25 to 1 µg/mL (≈ 0.692 to 2.77 µM)
MIC50 (E. faecalis): 2
MIC90 (E. faecalis): > 32
share of isolates resistant (H. pylori isolates; 200 H. pylori isolates, resistance: amoxicillin MICs≧0.5, clarithromycin ≧1, metronidazole ≧8, ciprofloxacin ≧1, levofloxacin ≧1 μg/mL): 2%
MIC50 (H. pylori isolates; [12]): 250 µg/mL (≈ 692 µM)
MIC90 (H. pylori isolates; [12]): 500 µg/mL (≈ 1380 µM)
MIC50 ([4]; MRSE (9)): >32/>32
MIC90 ([4]; MRSE (9)): >32/>32
MIC50 ([4]; MSSE (32)): 4
MIC90 ([4]; MSSE (32)): > 32
MIC50 [5, 13]: > 32 µg/mL
MIC90 [5, 13]: > 32 µg/mL
MIC50 [5, 14]: 32 µg/mL (≈ 88.6 µM)
MIC90 [5, 14]: > 32 µg/mL
MIC50 [5, 15]: 8 µg/mL (≈ 22.1 µM)
MIC90 [5, 15]: 8 µg/mL (≈ 22.1 µM)
MIC50 [5, 16]: 0.25 µg/mL (≈ 0.692 µM)
MIC90 [5, 16]: 0.25 µg/mL (≈ 0.692 µM)
MIC50 [5, 17]: 32 µg/mL (≈ 88.6 µM)
MIC90 [5, 17]: > 32 µg/mL
MIC50 ([5]; MRSA (n = 193)): > 32 µg/mL
MIC90 ([5]; MRSA (n = 193)): > 32 µg/mL
MIC ([5]; MRSA (n = 193), read-out: MIC Range Max): > 32 µg/mL
MIC ([5]; MRSA (n = 193), read-out: MIC Range Min): 0.25 µg/mL (≈ 0.692 µM)
MIC50 ([6]; CA-MRSA (23)): 4
MIC90 ([6]; CA-MRSA (23)): 8
MIC50 ([6]; HA-MRSA (91)): >32/>32
MIC90 ([6]; HA-MRSA (91)): >32/>32
MIC50 ([6]; MSSA (372)): 0.25
MIC90 ([6]; MSSA (372)): 4
MIC50 ([6]; VISA (12), NARSA isolates): 32/>32
MIC90 ([6]; VISA (12), NARSA isolates): 32/>32
median MIC (single value under head MIC50/MIC90) ([6]; VRSA (7), NARSA isolates): 32
MIC50 (S. pneumoniae; SPN CipR (29)): 2
MIC90 (S. pneumoniae; SPN CipR (29)): 16
MIC50 (S. pneumoniae; SPN PenI (103)): 0.5
MIC90 (S. pneumoniae; SPN PenI (103)): 1
MIC50 (S. pneumoniae; SPN PenR (34)): 0.5
MIC90 (S. pneumoniae; SPN PenR (34)): 2
MIC50 (S. pneumoniae; SPN PenS (519)): 0.5
MIC90 (S. pneumoniae; SPN PenS (519)): 1
MIC50 (S. pneumoniae; SPN-All (656)): 0.5
MIC90 (S. pneumoniae; SPN-All (656)): 1
